The values below come from a melting point compilation (Tetko et al.).

In turn, `O=C(Cl)c1ccc(I)cc1` returned a melting point of 63 °C. For `ClC(Cl)=C(c1ccc(Cl)cc1)c1ccc(Cl)cc1`, the melting point turned out to be 89 °C. Molecule `O=C1CCSc2ccc(F)cc21` returned a melting point of 94 to 95 °C. `Cc1cc(C(C)(C)C)c(O)c(C)c1CC1=NCCN1` had a melting point of 182 °C. Molecule `O=C(C=Cc1ccccc1)NCCO` registered a melting point of 101 °C. Regarding `COC1CC2C3(C)CCCC2(COC3O)C2C(OC(C)=O)CC3C(C)C(=O)C12C3O` (stereo not drawn), the melting point came out at 200 °C. As for `Cc1nc(/C(C#N)=N/Nc2ccccc2Cl)sc1/N=N/c1ccc(Br)cc1`, the melting point was found to be 241 °C. In turn, `COC(=O)C1(S(=O)(=O)c2ccc(Br)cc2)CCCC1` returned a melting point of 104 °C. To `Nc1ccc(N2CCOCC2)c(Cl)c1` belongs 102 to 104 °C; to `Nc1ccc2cc3ccc(N)cc3nc2c1`, 285 °C; to `Oc1ccc2ccccc2c1/N=N/c1ccc(/N=N\c2ccccc2)cc1`, 199 °C. The molecule `CC(C)(C)N(NC(=O)c1ccccc1)C(=O)c1c(Cl)cccc1Cl` gave a melting point of 198 °C. With `CC(=O)N1CCN(c2ccc(O)cc2)CC1`, the melting point amounted to 183 °C.

`NC1CCC(c2ccccc2)CC1CO` (stereo not drawn) had a melting point of 116 to 122 °C. Then `C/C(CCc1ccc2c(c1)NC(C)CC2)=N\NC(N)=O` (stereo not drawn), with 128 °C; and `O=[N+]([O-])c1cc(CO)ccc1O`, with 94 to 98 °C; and `CCC1C(C=NC(C)(C)C)=NC(C)(C)N1O` (stereo not drawn), with 103 to 105 °C. The molecule `CC(C)(C)OC(=O)N[C@@H](Cc1ccc(Cl)cc1Cl)C(=O)O` had a melting point of 132 °C.

For `Cc1ccccc1NC(=S)C(=O)c1ccccc1`, the melting point was determined as 124 °C. `Clc1cccc(O[Si]23OCCN(CCO2)CCO3)c1` showed a melting point of 245 °C. With `Nc1nc(O)cc(C(F)(F)F)n1`, the melting point was 290 °C. For the molecule `Cc1cc2ccccc2c2ccc3ccccc3c12`, the melting point worked out at 118 °C. In turn, `O=[N+]([O-])c1ccc(Br)nc1` displayed a melting point of 138 °C. On to `O=C(O)C1(c2ccccc2)CC1`, for which the melting point amounted to 87 °C.

`Cc1c(C)c(C)c(C(=O)O)c(C)c1C` returned a melting point of 210 °C. For `N#CCN`, the melting point is 101 °C.

`CC(C)(C)OC(=O)N1CC(C(=O)O)C1` yielded a melting point of 102 °C. To `Cc1cc(C)n(C)n1` belongs 35.5 °C; to `CCOC(=O)c1c(N)sc2c1CCC2`, 90 to 94 °C. As for `O=C(O)c1ccccc1-c1cccnc1`, the melting point amounted to 188 °C. `COc1ccc(C(=O)c2cccc(C)c2)cc1C` had a melting point of 62.3 °C. `C1=CCCCCC1`: the melting point is -56 °C. `CC(=O)c1ccc([N+](=O)[O-])s1` displayed a melting point of 106 °C. Regarding `O=CC1=Cc2cc(O)ccc2OC1`, the melting point is 165 °C. For `COc1ccc(-c2nnc3n2NC(c2ccc(Cl)cc2)S3)cc1` (stereo not drawn), the melting point was determined as 160 °C.

Molecule `COc1cc2c(c3oc(=O)c4c(c13)CCOC4=O)C1CCOC1O2` (stereo not drawn) yielded a melting point of 237 to 240 °C. Then `CCC[N+](=O)[O-]`, with -108 °C; and `Cn1ccc(-c2ccc(N)cc2)n1`, with 125 to 132 °C; and `N#Cc1cccc(C(=O)Cc2cccc(Cl)c2)c1`, with 87.5 to 90.8 °C.

As for `O=C(O)c1ccc(C(=O)O)o1`, the melting point was found to be 342 °C. To `CC(C)NC(=O)C(C)C` belongs 103 to 104 °C; to `COC(=O)CC(C)=O`, 27.5 °C; to `CC(C)(C)OC(=O)C1CC(=O)CN1C(=O)OC(C)(C)C` (stereo not drawn), 66 °C. As for `CCCCc1c(C)nc(NCC)nc1OS(=O)(=O)N(C)C`, the melting point came to 50.5 °C.

In the case of `CCNC(=O)COC(=O)c1ccccc1`, the melting point is 106 °C. `COc1cccc(OC)c1P(c1c(OC)cccc1OC)c1c(OC)cccc1OC` gave a melting point of 155 °C. As to `C/C(=N\NC(N)=O)C1=CC[C@]2(C)C3CCC4=C(CCC4(C)C)C3CC[C@H]2C1` (stereo partly drawn), the melting point amounted to 239 °C. Molecule `CC(=O)Oc1cccc(C(N)=O)c1` had a melting point of 140 °C. For `CC(=O)CC(=O)OCc1ccc([N+](=O)[O-])cc1`, the melting point is 45 to 46.5 °C. Then `Cc1cccc(C)c1NC(=O)CCl`, with 148 °C; and `CCCCCCCCCOC(C)=O`, with -26 °C. `O=C1/C(=N/Nc2ccc(F)cc2)C(C(F)(F)F)=NN1c1ccccc1` gave a melting point of 185 °C. In the case of `Oc1c(F)c(F)cc(F)c1F`, the melting point was determined as 38 °C.

`Nc1ccc2c(c1)OCO2` returned a melting point of 38 to 43 °C.

`CNC1CCC2(C)C(CCC3C2CCC2(C)C3CCC2C(C)N(C)C)C1` (stereo not drawn) returned a melting point of 172 °C. Molecule `NC(=O)CCC(N)=O` registered a melting point of 260 to 265 °C. Then `COc1ccccc1Oc1ccc(S(=O)(=O)Cl)cc1`, with 54 to 56 °C; and `COCCOc1cnc(NS(=O)(=O)c2ccccc2)nc1`, with 152 °C; and `Nc1ccc([N+](=O)[O-])c2c1C(=O)c1c(Cl)ccc(Cl)c1C2=O`, with 307 °C. Molecule `CCC(C)(CC)OC(N)=O` gave a melting point of 56 °C. In the case of `Cn1cnc2ncnc-2c1N`, the melting point is 300 °C. Turning to `CCOC(=O)c1c(C)n[nH]c1C`, the melting point lay within 118 to 119 °C. `C#C[C@@]1(OC)CC[C@H]2[C@@H]3CCc4cc(OC)ccc4[C@H]3CC[C@@]21C` had a melting point of 114 °C. Then `O=Cc1cc(F)ccc1O`, with 84 °C; and `CCCC(C)(O)C#CC(C)(O)CCC` (stereo not drawn), with 68.5 °C; and `CCOC(=O)c1c(C)nc2sc3c(c2c1N)CCCC3`, with 135 to 136 °C.

As to `NC(=O)C(CCN1CCCCCC1)(c1ccccc1)c1ccccc1`, the melting point amounted to 142 °C.

In the case of `CC(CC(C)C(=O)O)C(=O)O` (stereo not drawn), the melting point is 104 to 108 °C.

On to `CCCSP(=O)(OCC)Oc1ccc(Br)cc1Cl` (stereo not drawn), for which the melting point was under 25 °C. In turn, `CC(C)(C)OC(=O)N1CCC(C(N)=S)CC1` yielded a melting point of 130 to 131 °C. Then `CC1CCC(C(C)C)C(OC(=O)C2=CCC(C(=O)OC3CC(C)CCC3C(C)C)CC2)C1` (stereo not drawn), with 125 °C; and `Cc1c(C)c([N+](=O)[O-])c(C(C)(C)C)c([N+](=O)[O-])c1C`, with 136 °C; and `COc1ccc2c(c1)CC1(CCC(O)(c3ccc(C(C)(C)C)cc3)CC1)C2O` (stereo not drawn), with 102 to 106 °C.

Turning to `NC(=O)CC(N)C(=O)O` (stereo not drawn), the melting point came out at 234 °C. The molecule `CC(=O)c1cc(C(C)=O)c(N)cc1N` registered a melting point of 235 °C. On to `COc1ccc2c(c1)c(CC(=O)OCC(=O)O)c(C)n2C(=O)c1ccc(Cl)cc1`, for which the melting point was 150 °C. `NC(=S)Nc1ccccc1F` had a melting point of 143 to 145 °C. For the molecule `COC(=O)c1cc(OCC(F)(F)F)ccc1OCC(F)(F)F`, the melting point fell in the range of 40 to 41 °C.

In turn, `CCOC(=O)Nc1ccc2cc3ccc(NC)c(CO)c3nc2c1` displayed a melting point of 145 °C. Take `CCCCCCCCCCCCCCCCCCSSCCCCCCCCCCCCCCCCCC`: the melting point amounted to 62 °C. Consider `CCOC(=O)C(C#N)=Cc1ccccc1`, for which the melting point was found to be 51 °C. Molecule `N#Cc1ncccc1Cl` gave a melting point of 84 °C. Molecule `S=C1SCN(Cc2ccccc2)CN1Cc1ccccc1` had a melting point of 102 °C. In turn, `O=C(O)C(Br)Br` came in with a melting point of 49 °C.

`Oc1c(Br)cc(Br)c(Br)c1Br` registered a melting point of 114 °C. Consider `CCOC1Oc2ccc(C)cc2C(=O)/C1=C/Nc1nc2ccc(Cl)cc2s1` (stereo not drawn), for which the melting point is 146 to 148 °C.

Take `Cc1nc(-c2ccc3c(c2)CCO3)sc1C(=O)Cl`: the melting point was 150 to 154 °C.

Molecule `CCCCc1c(C)nc(NCC)nc1O` had a melting point of 160 °C. To `COc1ccccc1OCC(=O)O` belongs 120 °C.

With `N#Cc1c(F)cccc1I`, the melting point turned out to be 50 °C. Then `Cc1cc(C)n(N=Cc2ccc(F)cc2)c(=O)c1C#N`, with 186 to 188 °C. The molecule `Nc1c(I)cc(I)cc1C(=O)O` registered a melting point of 241 to 243 °C. In turn, `Clc1nccc2sccc12` showed a melting point of 99 °C. Molecule `O=[N+]([O-])c1c(Cl)ncnc1Cl` displayed a melting point of 102 °C. `Nc1ccc(C(=O)O)cn1` registered a melting point of 312 °C. Then `O=C(O)c1cc2cc(OC(F)(F)F)ccc2[nH]1`, with 204 to 207 °C; and `N#Cc1c(N2CCCC2)nc(N)c2c(-c3ccccc3)cc(-c3ccccc3)nc12`, with 236 °C. To `Cn1c(=O)c2c(ncn2CC(O)CO)n(C)c1=O` (stereo not drawn) belongs 162 °C. In the case of `CC(C)(C)OC(=O)N1CCCN(c2cccc(O)c2)CC1`, the melting point was in the range of 143 to 144 °C.

`OCc1ccc(-c2ccccn2)cc1` showed a melting point of 49 to 51 °C. The molecule `Cc1cc(C(F)(F)F)n2nc(N)c(/N=N/c3cccc(C(F)(F)F)c3)c2n1` registered a melting point of 171 °C. Molecule `COC(=O)[C@@H](N)Cc1ccc(O)cc1` displayed a melting point of 137 °C. Take `CN(C)S(=O)(=O)Cl`: the melting point is -13 °C. As for `CC(C)(C)OC(=O)Nc1ccccn1`, the melting point is 93 °C. Regarding `O=C1OC(c2ccccc2)Cc2ccccc21` (stereo not drawn), the melting point lay in the range of 88 to 90 °C.

Turning to `O=S(=O)(O)CC(O)CN(CCO)CCO` (stereo not drawn), the melting point was in the range of 189 to 192 °C. `NNC(=O)C(O)(c1ccccc1)c1ccccc1` registered a melting point of 168 to 169 °C. In turn, `CCC1CN2CCC1CC2C(O)c1ccnc2ccc(OC)cc12` (stereo not drawn) yielded a melting point of 172 °C. Molecule `O=C(O)C1CCN(C(=O)OCc2ccccc2)CC1` displayed a melting point of 78 to 81 °C. `Cc1ccc(CC=O)cc1`: the melting point came to 40 °C. For the molecule `C#CCOC(=O)C(C)Oc1ccc(Oc2ncc(Cl)cc2F)cc1` (stereo not drawn), the melting point was 59.5 °C.

In turn, `N#Cc1c(NC(=O)CCl)sc2c1CCCC2` had a melting point of 179 to 180 °C.

`C/C=C/c1nc(O)n(-c2ccccc2)n1` yielded a melting point of 188 °C.

The term melting point denotes the temperature, or range, at which the solid turns liquid.
